Experimental data reported in PubChem BioAssay (NCI).
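Where inhibition never reached the appropriate level, the endpoint shown equals the highest concentration tested. Otherwise, values were interpolated linearly from a five-concentration, 48-hour dose response in 96-well plates. Definition used: TGI = concentration required for complete inhibition of growth.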

How the values were obtained:
Experiment in all cases: inhibition of tumour cell growth, NCI panel, 48 h
786-0 renal = test system: 786-0 renal
A498 renal = test system: A498 renal
A549 NSCLC = test system: A549 NSCLC
ACHN renal = test system: ACHN renal
CAKI-1 renal = test system: CAKI-1 renal
CCRF-CEM leukemia = test system: CCRF-CEM leukemia
COLO 205 colon = test system: COLO 205 colon
DU-145 prostate = test system: DU-145 prostate
EKVX NSCLC = test system: EKVX NSCLC
HCC-2998 colon = test system: HCC-2998 colon
HCT-116 colon = test system: HCT-116 colon
HCT-15 colon = test system: HCT-15 colon
HL-60(TB) leukemia = test system: HL-60(TB) leukemia
HOP-62 NSCLC = test system: HOP-62 NSCLC
HOP-92 NSCLC = test system: HOP-92 NSCLC
HT29 colon = test system: HT29 colon
K-562 leukemia = test system: K-562 leukemia
KM12 colon = test system: KM12 colon
LOX IMVI melanoma = test system: LOX IMVI melanoma
M14 melanoma = test system: M14 melanoma
MCF7 breast = test system: MCF7 breast
MDA-MB-231 breast = test system: MDA-MB-231 breast
MDA-MB-435 = test system: MDA-MB-435
MDA-N = test system: MDA-N
MOLT-4 leukemia = test system: MOLT-4 leukemia
NCI-H226 lung = test system: NCI-H226 lung
NCI-H23 lung = test system: NCI-H23 lung
NCI-H460 lung = test system: NCI-H460 lung
NCI/ADR-RES ovarian = test system: NCI/ADR-RES ovarian
OVCAR-3 ovarian = test system: OVCAR-3 ovarian
OVCAR-4 ovarian = test system: OVCAR-4 ovarian
OVCAR-5 ovarian = test system: OVCAR-5 ovarian
OVCAR-8 ovarian = test system: OVCAR-8 ovarian
PC-3 prostate = test system: PC-3 prostate
RPMI-8226 leukemia = test system: RPMI-8226 leukemia
RXF 393 renal = test system: RXF 393 renal
SF-268 CNS = test system: SF-268 CNS
SF-295 CNS = test system: SF-295 CNS
SF-539 CNS = test system: SF-539 CNS
SK-MEL-28 melanoma = test system: SK-MEL-28 melanoma
SK-MEL-5 melanoma = test system: SK-MEL-5 melanoma
SK-OV-3 ovarian = test system: SK-OV-3 ovarian
SN12C renal = test system: SN12C renal
SNB-19 CNS = test system: SNB-19 CNS
SNB-75 CNS = test system: SNB-75 CNS
SW-620 colon = test system: SW-620 colon
T-47D breast = test system: T-47D breast
TK-10 renal = test system: TK-10 renal
U251 CNS = test system: U251 CNS
UACC-257 melanoma = test system: UACC-257 melanoma
UACC-62 melanoma = test system: UACC-62 melanoma
UO-31 renal = test system: UO-31 renal
BT-549 breast = test system: BT-549 breast
IGROV1 ovarian = test system: IGROV1 ovarian
NCI-H522 lung = test system: NCI-H522 lung
SK-MEL-2 melanoma = test system: SK-MEL-2 melanoma
SR leukemia = test system: SR leukemia
MALME-3M melanoma = test system: MALME-3M melanoma

Measured: TGI

Cc1nn(-c2ccccc2)c2nc3c(c(C)nn3-c3ccccc3)c(-c3ccc(C(F)(F)F)cc3)c12
92.6 µM: SNB-75 CNS
> 100 µM: 786-0 renal | A498 renal | A549 NSCLC | ACHN renal | CAKI-1 renal | CCRF-CEM leukemia | COLO 205 colon | DU-145 prostate | EKVX NSCLC | HCC-2998 colon | HCT-116 colon | HCT-15 colon | HL-60(TB) leukemia | HOP-62 NSCLC | HOP-92 NSCLC | HT29 colon | K-562 leukemia | KM12 colon | LOX IMVI melanoma | M14 melanoma | MCF7 breast | MDA-MB-231 breast | MDA-MB-435 | MDA-N | MOLT-4 leukemia | NCI-H226 lung | NCI-H23 lung | NCI-H460 lung | NCI/ADR-RES ovarian | OVCAR-3 ovarian | OVCAR-4 ovarian | OVCAR-5 ovarian | OVCAR-8 ovarian | PC-3 prostate | RPMI-8226 leukemia | RXF 393 renal | SF-268 CNS | SF-295 CNS | SF-539 CNS | SK-MEL-28 melanoma | SK-MEL-5 melanoma | SK-OV-3 ovarian | SN12C renal | SNB-19 CNS | SW-620 colon | T-47D breast | TK-10 renal | U251 CNS | UACC-257 melanoma | UACC-62 melanoma | UO-31 renal

CCc1nnc(CC)n1N1C(=O)CCC1=O
> 100 µM: 786-0 renal | A549 NSCLC | ACHN renal | BT-549 breast | CCRF-CEM leukemia | COLO 205 colon | DU-145 prostate | EKVX NSCLC | HCC-2998 colon | HCT-116 colon | HCT-15 colon | HOP-62 NSCLC | HOP-92 NSCLC | HT29 colon | IGROV1 ovarian | K-562 leukemia | KM12 colon | LOX IMVI melanoma | M14 melanoma | MCF7 breast | MDA-MB-231 breast | MDA-MB-435 | MDA-N | MOLT-4 leukemia | NCI-H23 lung | NCI-H522 lung | NCI/ADR-RES ovarian | OVCAR-3 ovarian | OVCAR-4 ovarian | OVCAR-5 ovarian | OVCAR-8 ovarian | PC-3 prostate | RPMI-8226 leukemia | RXF 393 renal | SF-268 CNS | SF-295 CNS | SF-539 CNS | SK-MEL-2 melanoma | SK-MEL-28 melanoma | SK-MEL-5 melanoma | SK-OV-3 ovarian | SN12C renal | SNB-19 CNS | SNB-75 CNS | SR leukemia | SW-620 colon | TK-10 renal | U251 CNS | UACC-257 melanoma | UACC-62 melanoma | UO-31 renal

CCCCCCCCCCCCCCCCCCOP1(=O)OCCO1
75.3 µM: HL-60(TB) leukemia
83.9 µM: PC-3 prostate
75.4 µM: RXF 393 renal
> 100 µM: 786-0 renal | A498 renal | A549 NSCLC | ACHN renal | CAKI-1 renal | CCRF-CEM leukemia | COLO 205 colon | DU-145 prostate | EKVX NSCLC | HCC-2998 colon | HCT-116 colon | HCT-15 colon | HOP-62 NSCLC | HOP-92 NSCLC | HT29 colon | IGROV1 ovarian | K-562 leukemia | KM12 colon | LOX IMVI melanoma | M14 melanoma | MALME-3M melanoma | MCF7 breast | MDA-MB-231 breast | MDA-MB-435 | MDA-N | MOLT-4 leukemia | NCI-H226 lung | NCI-H23 lung | NCI-H522 lung | NCI/ADR-RES ovarian | OVCAR-3 ovarian | OVCAR-4 ovarian | OVCAR-5 ovarian | OVCAR-8 ovarian | RPMI-8226 leukemia | SF-295 CNS | SF-539 CNS | SK-MEL-2 melanoma | SK-MEL-28 melanoma | SK-MEL-5 melanoma | SK-OV-3 ovarian | SN12C renal | SNB-19 CNS | SNB-75 CNS | SW-620 colon | T-47D breast | TK-10 renal | U251 CNS | UACC-257 melanoma | UACC-62 melanoma | UO-31 renal
